In brackets after ≈: the same amount, converted by molar mass.
How the values were obtained:
S. epidermidis KR4243/1 = test: MIC, twofold microdilution, clinical strain; assay type: cell-based; details: Staphylococcus epidermidis, 18 h
P. aeruginosa ATCC 15442 = test: MIC, twofold microdilution, standard strain; assay type: cell-based, Pseudomonas aeruginosa; details: Pseudomonas aeruginosa, ATCC15442; standard strain, 18 h
S. aureus T5595 = test: MIC, twofold microdilution, clinical strain; assay type: cell-based, Staphylococcus aureus; details: for MIC S. aureus T5595: 18 h; for MIC: Staphylococcus aureus, T5595, 18 h
E. cloacae 8 = test: MIC, twofold microdilution, clinical strain; assay type: cell-based, Escherichia cloacae; details: for MIC: Enterobacter cloacae, 8, clinical strain, 18 h
E. coli 600 = test: MIC, twofold microdilution, clinical strain; assay type: cell-based, Escherichia coli; details: Escherichia coli, 600, 18 h
[1] = test system: S. epidermidis ATCC 35984; test: MIC, twofold microdilution, standard strain; assay type: cell-based; details: Staphylococcus epidermidis, ATCC35984, 18 h
S. aureus ATCC 29213 = test: MIC, twofold microdilution, standard strain; assay type: cell-based; details: Staphylococcus aureus, ATCC29213, 18 h
K. pneumoniae 28 = test: MIC, twofold microdilution, clinical strain; assay type: cell-based; details: Klebsiella pneumoniae, 18 h
P. aeruginosa 659 = test: MIC, twofold microdilution, clinical strain; assay type: cell-based; details: Pseudomonas aeruginosa, 18 h
E. coli ATCC 25922 = test: MIC, twofold microdilution, standard strain; assay type: cell-based, Escherichia coli; details: Escherichia coli, ATCC25922; standard strain, 18 h
PC3 cells = test: MTT assay, cytotoxic activity; assay type: cell-based, human; details: for IC50: MTT, 72 h
Summary of the method: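 Cytotoxicity readout: relative MTT level (%), i.e. absorbance of compound-treated PC3 cells divided by that of untreated controls, ×100. Cultures were kept in a humidified 37 °C, 5% CO2 incubator.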

S. pasteuri KR 4358 = test: MIC, twofold microdilution, clinical strain; assay type: cell-based; details: Staphylococcus pasteuri, KR4358, 18 h
S. epidermidis 5253 = test: MIC, twofold microdilution, clinical strain; assay type: cell-based, Staphylococcus epidermidis; details: for MIC: Staphylococcus epidermidis, 5253, 18 h
S. aureus ATCC 25923 = test: MIC, twofold microdilution, standard strain; assay type: cell-based; details: Staphylococcus aureus, ATCC25923, 18 h
S. aureus 180 = test: MIC, twofold microdilution, clinical strain; assay type: cell-based; details: Staphylococcus aureus, 18 h
K. pneumoniae 510 = test: MIC, twofold microdilution, clinical strain; assay type: cell-based, Klebsiella pneumoniae; details: Klebsiella pneumoniae, 510; clinical strain, 18 h
[2] = test system: clinical bacterial strains; test: MIC, clinical isolates as groups of strains; assay type: cell-based; details: for MIC: clinical strains, read-out: MIC against selected E. coli and E. cloacae strains
S. aureus ATCC 6538 = test: MIC, twofold microdilution, standard strain; assay type: cell-based, Staphylococcus aureus; details: Staphylococcus aureus, ATCC6538; standard strain, 18 h
S. aureus 5595 = test: MIC, twofold microdilution, clinical strain; assay type: cell-based; details: Staphylococcus aureus, 18 h
P. aeruginosa 37 = test: MIC, twofold microdilution, clinical strain; assay type: cell-based; details: Pseudomonas aeruginosa, 18 h
[3] = MTT assay, cytotoxic activity; assay type: cell-based; details: human, HaCaT cells (immortal keratinocytes); MTT, 72 h, normal cell line; read-out: IC50 HaCaT
Summary of the method: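 Viability was calculated as A/B × 100%, with A the absorbance of treated samples and B that of untreated controls, from MTT reduction. Cells were cultured in a humidified 37 °C/5% CO2 incubator.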

[4] = test system: S. epidermidis ATCC 12228; test: MIC, twofold microdilution, standard strain; assay type: cell-based; details: Staphylococcus epidermidis, ATCC12228, 18 h
S. aureus NCTC 4163 = test: MIC, twofold microdilution, standard strain; assay type: cell-based; details: Staphylococcus aureus, NCTC4163, 18 h
[5] = test system: M. tuberculosis Spec. 192; test: Tuberculostatic activity, Microplate Alamar Blue Assay (MIC); assay type: cell-based; details: Mycobacterium tuberculosis, MABA, read-out: MIC M. tuberculosis Spec. 192 (sensitive to tuberculostatics)
M. tuberculosis H37Rv = test: as above; assay type: cell-based, Mycobacterium tuberculosis; set-up: concentration with growth inhibition as good as RMP and SM or EMB: unit not given here; details: for MIC: Mycobacterium tuberculosis, H37RV, MABA, read-out: MIC M. tuberculosis H37Rv
E. coli 951 = test: MIC, twofold microdilution, clinical strain; assay type: cell-based; details: Escherichia coli, 18 h
S. aureus T5591 = test: MIC, twofold microdilution, clinical strain; assay type: cell-based, Staphylococcus aureus; details: for MIC S. aureus T5591: 18 h; for MIC: Staphylococcus aureus, T5591, 18 h
S. epidermidis 4341 = test: MIC, twofold microdilution, clinical strain; assay type: cell-based; details: Staphylococcus epidermidis, 18 h
E. coli 520 = test: MIC, twofold microdilution, clinical strain; assay type: cell-based; details: Escherichia coli, 18 h

Structure (SMILES)	MIC (S. epidermidis KR4243/1) [µg/mL]	MIC (P. aeruginosa ATCC 15442) [µg/mL]	MIC (S. aureus T5595) [µg/mL]	MIC (E. cloacae 8) [µg/mL]	MIC (E. coli 600) [µg/mL]	MIC [1] [µg/mL]	MIC (S. aureus ATCC 29213) [µg/mL]	MIC (K. pneumoniae 28) [µg/mL]	MIC (P. aeruginosa 659) [µg/mL]	MIC (E. coli ATCC 25922) [µg/mL]	IC50 (PC3 cells; Homo sapiens, PC-3, 72 h) [µM]	MIC (S. pasteuri KR 4358) [µg/mL]	MIC (S. epidermidis 5253) [µg/mL]	MIC (S. aureus ATCC 25923) [µg/mL]	MIC (S. aureus 180) [µg/mL]	MIC (K. pneumoniae 510) [µg/mL]	MIC (S. aureus ATCC 6538) [µg/mL]	MIC (S. aureus 5595) [µg/mL]	MIC (P. aeruginosa 37) [µg/mL]	IC50 at 72 h [3] [µM]	further results
O=C(O)c1cn(C2CC2)c2cc(N3CCN(C(=O)C4CC4)CC3)c(F)cc2c1=O [Compound 2, 7-(4-Cyclopropanecarbonyl-piperazin-1-yl)-1-cyclopropyl-6-fluoro-4-oxo-1,4-dihydro-quinoline-3-carboxylic Acid]	0.2 (≈ 0.501 µM)	0.8 (≈ 2 µM)	0.1 to 0.2 (≈ 0.25 to 0.501 µM)	0.05 (≈ 0.125 µM)	0.2 (≈ 0.501 µM)	0.1 (≈ 0.25 µM)	0.1 (≈ 0.25 µM)	> 25.6	6.4 (≈ 16 µM)	0.05 (≈ 0.125 µM)	85.2 ± 8.2	0.2 (≈ 0.501 µM)	12.8 to 25.6 (≈ 32 to 64.1 µM)	0.2 (≈ 0.501 µM)	0.4 (≈ 1 µM)	25.6 (≈ 64.1 µM)	0.1 (≈ 0.25 µM)	0.4 (≈ 1 µM)	12.8 (≈ 32 µM)	75.7 ± 7.5	MIC S. aureus T5595 (S. aureus T5595): 0.2 µg/mL (≈ 0.501 µM); MIC times lower than CP alone (E. cloacae 8; E. cloacae isolate): 1.2 times; MIC S. epidermidis 5253 (S. epidermidis 5253; 18 h): 25.6 µg/mL (≈ 64.1 µM); times more powerful than CP ([2]; S. aureus T5595 and T5591): 1.25–2.5 times; MIC [2]: 0.1 to 0.8 µg/mL (≈ 0.25 to 2 µM); MIC [4]: 0.1 µg/mL (≈ 0.25 µM); MIC (S. aureus NCTC 4163): 0.1 µg/mL (≈ 0.25 µM); MIC [5]: 0.5 µg/mL (≈ 1.25 µM); concentration with growth inhibition as good as RMP and SM or EMB (M. tuberculosis H37Rv; M. tuberculosis H37Rv): 1–2; MIC (M. tuberculosis H37Rv): 1 µg/mL (≈ 2.5 µM); MIC (E. coli 951): 6.4 µg/mL (≈ 16 µM); MIC S. aureus T5591 (S. aureus T5591): 0.2 µg/mL (≈ 0.501 µM); MIC (S. aureus T5591): 0.1 to 0.2 µg/mL (≈ 0.25 to 0.501 µM); MIC (S. epidermidis 4341): 12.8 µg/mL (≈ 32 µM); MIC (E. coli 520): 0.2 µg/mL (≈ 0.501 µM)
O=C(O)c1cn(C2CC2)c2cc(N3CCN(C(=O)CCl)CC3)c(F)cc2c1=O [Compound 3, 7-[4-(2-Chloroacetyl)-piperazin-1-yl]-1-cyclopropyl-6-fluoro-4-oxo-1,4-dihydro-quinoline-3-carboxylic Acid]	0.2 (≈ 0.49 µM)	6.4 (≈ 15.7 µM)	0.1 to 0.2 (≈ 0.245 to 0.49 µM)	0.8 (≈ 1.96 µM)	0.4 (≈ 0.981 µM)	0.1 (≈ 0.245 µM)	0.2 (≈ 0.49 µM)	> 25.6	> 25.6	0.2 (≈ 0.49 µM)	2.02 to 4.8	0.2 (≈ 0.49 µM)	> 25.6	0.2 (≈ 0.49 µM)	0.4 (≈ 0.981 µM)	25.6 (≈ 62.8 µM)	0.2 (≈ 0.49 µM)	0.4 (≈ 0.981 µM)	> 25.6	35.7 ± 8.2	MIC S. aureus T5595 (S. aureus T5595): 0.2 µg/mL (≈ 0.49 µM); IC50 (PC3 cells): 2.02 ± 0.1 µM; times more powerful than CP ([2]; S. aureus T5595 and T5591): 1.25–2.5 times; MIC [2]: 0.1 to 0.8 µg/mL (≈ 0.245 to 1.96 µM); MIC [4]: 0.2 µg/mL (≈ 0.49 µM); MIC (S. aureus NCTC 4163): 0.1 µg/mL (≈ 0.245 µM); MIC [5]: 2 µg/mL (≈ 4.9 µM); MIC (M. tuberculosis H37Rv): 4 µg/mL (≈ 9.81 µM); MIC (E. coli 951): > 25.6 µg/mL; MIC S. aureus T5591 (S. aureus T5591): 0.1 µg/mL (≈ 0.245 µM); MIC (S. aureus T5591): 0.1 to 0.2 µg/mL (≈ 0.245 to 0.49 µM); MIC (S. epidermidis 4341): 12.8 µg/mL (≈ 31.4 µM); MIC (E. coli 520): 0.4 µg/mL (≈ 0.981 µM)
O=C(O)c1cn(C2CC2)c2cc(N3CCN(C(=O)CCC(F)(F)F)CC3)c(F)cc2c1=O [Compound 15, 7-[4-(4,4,4-Trifluorobutyryl)-piperazin-1-yl]-1-cyclopropyl-6-fluoro-4-oxo-1,4-dihydro-quinoline-3-carboxylic Acid]	0.2 (≈ 0.439 µM)	1 (≈ 2.2 µM)	0.4 (≈ 0.878 µM)	> 25.6	3.2 (≈ 7.03 µM)	0.2 (≈ 0.439 µM)	0.2 (≈ 0.439 µM)	> 25.6	> 25.6	1.6 (≈ 3.51 µM)	15.7 ± 3.8	0.2 (≈ 0.439 µM)	> 25.6	0.2 (≈ 0.439 µM)	0.5 (≈ 1.1 µM)	> 25.6	0.2 (≈ 0.439 µM)	0.5 (≈ 1.1 µM)	> 25.6	85.5 ± 9.2	share of the reference (CP) activity ([2]; S. aureus T5595 and T5591): 62.5%; MIC [4]: 0.2 µg/mL (≈ 0.439 µM); MIC (S. aureus NCTC 4163): 0.2 µg/mL (≈ 0.439 µM); MIC [5]: 64 µg/mL (≈ 141 µM); MIC (M. tuberculosis H37Rv): 64 µg/mL (≈ 141 µM); MIC (E. coli 951): > 25.6 µg/mL; MIC (S. aureus T5591): 0.4 µg/mL (≈ 0.878 µM); MIC (S. epidermidis 4341): > 25.6 µg/mL; MIC (E. coli 520): 3.2 µg/mL (≈ 7.03 µM)
O=C(O)c1cn(C2CC2)c2cc(N3CCN(CCCCCCCCCCC(=O)N4CCN(c5cc6c(cc5F)c(=O)c(C(=O)O)cn6C5CC5)CC4)CC3)c(F)cc2c1=O [Compound 21, CP–Undecanoyl–CP Dimer]	> 25.6	> 25.6	> 25.6	> 25.6	> 25.6	12.8 (≈ 15.4 µM)	12.8 (≈ 15.4 µM)	> 25.6	> 25.6	25.6 (≈ 30.9 µM)	4.8 ± 0.1	> 25.6	> 25.6	12.8 (≈ 15.4 µM)	> 25.6	> 25.6	12.8 (≈ 15.4 µM)	> 25.6	> 25.6	73.2 ± 10.1	fold stronger cytotoxic properties than cisplatin (PC3 cells; PC3): 2.75 fold; MIC [4]: 25.6 µg/mL (≈ 30.9 µM); MIC (S. aureus NCTC 4163): 12.8 µg/mL (≈ 15.4 µM); MIC [5]: 2 µg/mL (≈ 2.41 µM); MIC (M. tuberculosis H37Rv): 2 µg/mL (≈ 2.41 µM); MIC (E. coli 951): > 25.6 µg/mL; MIC (S. aureus T5591): > 25.6 µg/mL; MIC (S. epidermidis 4341): > 25.6 µg/mL; MIC (E. coli 520): > 25.6 µg/mL
